Data as given in patent publication US9018383B2, “Acylamino-substituted cyclic carboxylic acid derivatives and their use as pharmaceuticals” (Sanofi, priority 2009, dated 2015).

Key:
human Edg-2 receptor = human Edg-2 receptor (Homo sapiens, UniProt Q92633); experiment: Determination of Edg-2 receptor inhibition by FLIPR measurements (LPA-mediated calcium liberation); assay type: cell-based; conditions: CHO cells overexpressing human Edg-2 receptor, LPA 100 nM, fluo-4 calcium fluorescence; read-out: Inhibitory concentrations IC50 for inhibition of the Edg-2 receptor
How it was run: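 CHO cells stably overexpressing human Edg-2, loaded with fluo-4 AM, were pre-incubated ~5 min with compound (≤0.3% DMSO), then stimulated with 100 nM LPA 18:1 in HBSS/HEPES/probenecid, pH 7.5. Peak calcium fluorescence over ~3 min, baseline-corrected, versus DMSO gave % inhibition; IC50 from triplicates.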

[1] = tested on: unilateral ureteral obstruction; conditions: model of unilateral ureteral obstruction; cited from earlier work
bone metastasis = conditions: in vivo; cited from earlier work
platelet activation = conditions: cited from earlier work
mesangial cells = conditions: cited from earlier work
[2] = tested on: vascular smooth muscle cells and endothelial cells; conditions: cited from earlier work

Sequence of human Edg-2 receptor (Q92633 whole entry): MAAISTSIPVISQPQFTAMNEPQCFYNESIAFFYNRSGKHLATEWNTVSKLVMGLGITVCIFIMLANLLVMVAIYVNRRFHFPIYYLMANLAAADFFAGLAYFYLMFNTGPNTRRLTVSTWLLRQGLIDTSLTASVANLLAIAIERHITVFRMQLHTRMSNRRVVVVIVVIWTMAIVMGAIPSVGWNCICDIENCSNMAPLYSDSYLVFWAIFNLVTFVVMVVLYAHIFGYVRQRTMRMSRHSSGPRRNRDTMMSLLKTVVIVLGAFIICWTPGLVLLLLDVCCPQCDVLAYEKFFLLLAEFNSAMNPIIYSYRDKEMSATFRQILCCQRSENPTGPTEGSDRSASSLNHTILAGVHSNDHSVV

Molecule | IC50 (human Edg-2 receptor) [nM] | further results
CC[C@H]1CC[C@](NC(=O)c2cc(F)c(OC)c(-c3cnc(OC)c(Cl)c3)c2)(C(=O)O)CC1 [Example 450, 1-[3-(5-Chloro-6-methoxy-pyridin-3-yl)-5-fluoro-4-methoxy-benzoylamino]-4-ethyl-cyclohexanecarboxylic acid] | < 100 | –
COc1ccc(-c2cncc(C(=O)N[C@]3(C(=O)O)CC[C@H](C(F)(F)F)CC3)c2)cc1Cl [Example 451, 1-{[5-(3-Chloro-4-methoxy-phenyl)-pyridine-3-carbonyl]-amino}-4-trifluoromethyl-cyclohexanecarboxylic acid] | < 100 | –
C[C@H]1CC[C@@](NC(=O)c2ccc(C(F)(F)F)c(-n3ccc4ccccc43)c2)(C(=O)O)CC1 [Example 452, 1-(3-Indol-1-yl-4-trifluoromethyl-benzoylamino)-4-methyl-cyclohexanecarboxylic acid] | 100 to 1000 | –
CC[C@H]1CC[C@](NC(=O)c2cncc(-c3ccc(OC)c(Cl)c3)c2)(C(=O)O)CC1 [Example 453, 1-{[5-(3-Chloro-4-methoxy-phenyl)-pyridine-3-carbonyl]-amino}-4-ethyl-cyclohexanecarboxylic acid] | < 100 | –
Cc1cccc(CCOc2cc(C(=O)N[C@]3(C(=O)O)CC[C@H](C(F)(F)F)CC3)cc3c2OC(F)(F)O3)c1 [Example 454, Cis-1-{[2,2-Difluoro-7-(2-m-tolyl-ethoxy)-benzo[1,3]dioxole-5-carbonyl]-amino}-4-trifluoromethyl-cyclohexanecarboxylic acid] | < 100 | –
Cc1cccc(CCOc2cc(C(=O)NC3(C(=O)O)CCCCCC3)cc3c2OC(F)(F)O3)c1 [Example 455, 1-{[2,2-Difluoro-7-(2-m-tolyl-ethoxy)-benzo[1,3]dioxole-5-carbonyl]-amino}-cycloheptanecarboxylic acid] | < 100 | –
CC[C@H]1CC[C@](NC(=O)c2cc(OCCc3cccc(C)c3)c3c(c2)OC(F)(F)O3)(C(=O)O)CC1 [Example 456, Cis-1-{[2,2-Difluoro-7-(2-m-tolyl-ethoxy)-benzo[1,3]dioxole-5-carbonyl]-amino}-4-ethyl-cyclohexanecarboxylic acid] | < 100 | –
COc1ccc(C(=O)NC2(C(=O)O)CCCCCC2)cc1-c1cccc(C2COC2)c1 [Example 457, 1-[(6-Methoxy-3′-oxetan-3-yl-biphenyl-3-carbonyl)-amino]-cycloheptanecarboxylic acid] | 100 to 1000 | –
CC[C@H]1CC[C@](NC(=O)c2ccc(OC)c(-c3cccc(C4COC4)c3)c2)(C(=O)O)CC1 [Example 458, Cis-4-Ethyl-1-[(6-methoxy-3′-oxetan-3-yl-biphenyl-3-carbonyl)-amino]-cyclohexanecarboxylic acid] | < 100 | –
COc1ccc(C(=O)N[C@]2(C(=O)O)CC[C@H](C(F)(F)F)CC2)cc1-c1cccc(C2COC2)c1 [Example 459, 1-[(6-Methoxy-3′-oxetan-3-yl-biphenyl-3-carbonyl)-amino]-4-trifluoromethyl-cyclohexanecarboxylic acid] | < 100 | –
COc1ccc(C(=O)N[C@]2(C(=O)O)CC[C@H](C(F)(F)F)CC2)cc1OCCc1cccc(C2COC2)c1 [Example 460, 1-{4-Methoxy-3-[2-(3-oxetan-3-yl-phenyl)-ethoxy]-benzoylamino}-4-trifluoromethyl-cyclohexanecarboxylic acid] | 100 to 1000 | –
CC[C@H]1CC[C@](NC(=O)c2ccc(CCS(C)(=O)=O)c(OCCc3cccc(C)c3)c2)(C(=O)O)CC1 [Example 462, Cis-4-Ethyl-1-[4-(2-methanesulfonyl-ethyl)-3-(2-m-tolyl-ethoxy)-benzoylamino]-cyclohexanecarboxylic acid] | 100 to 1000 | –
CC[C@H]1CC[C@](NC(=O)c2cc3c(c(-c4ccc(OC)c(Cl)c4)c2)OC(F)(F)O3)(C(=O)O)CC1 [Example 463, Cis-1-{[7-(3-Chloro-4-methoxy-phenyl)-2,2-difluoro-benzo[1,3]dioxole-5-carbonyl]-amino}-4-ethyl-cyclohexanecarboxylic acid] | < 100 | –
Cc1noc(-c2ccc(CSCCC(=O)O)cc2)c1NC(=O)OC(C)c1ccccc1Cl (stereo not shown) [Ki16425] | – | renal injury [1]: attenuated; progression of bone metastasis (bone metastasis): reduced
cis-1-{[5-(3-Chloro-4-methoxy-phenyl)-6-methoxy-pyridine-3-carbonyl]-amino}-4-ethyl-cyclohexanecarboxylic acid [Example 305] | < 100 | –
dioctanoylglycerol pyrophosphate [DGPP(8:0)] | – | effects of LPA, moxLDL or lipid core extracts from human atherosclerotic plaques on platelet activation (platelet activation): abrogated; LPA-induced proliferative response of mesangial cells (mesangial cells): inhibited; LPA-induced oxidative stress [2]: attenuated
